ChEMBL document CHEMBL1126210, “Conformationally restricted peptide isosteres. 2.1 Synthesis and in vitro potency of dipeptide renin inhibitors employing a 2-alkylsulfonyl-3-phenylcyclopropane carboxamide as a P3 amino acid replacement” (Bioorg Med Chem Lett, 1992)

Legend:
Renin [1] = target: T1, Renin (Homo sapiens, UniProt P00797); test: In vitro inhibition of human plasma renin at PH 7.4
T1 sequence (P00797 whole entry): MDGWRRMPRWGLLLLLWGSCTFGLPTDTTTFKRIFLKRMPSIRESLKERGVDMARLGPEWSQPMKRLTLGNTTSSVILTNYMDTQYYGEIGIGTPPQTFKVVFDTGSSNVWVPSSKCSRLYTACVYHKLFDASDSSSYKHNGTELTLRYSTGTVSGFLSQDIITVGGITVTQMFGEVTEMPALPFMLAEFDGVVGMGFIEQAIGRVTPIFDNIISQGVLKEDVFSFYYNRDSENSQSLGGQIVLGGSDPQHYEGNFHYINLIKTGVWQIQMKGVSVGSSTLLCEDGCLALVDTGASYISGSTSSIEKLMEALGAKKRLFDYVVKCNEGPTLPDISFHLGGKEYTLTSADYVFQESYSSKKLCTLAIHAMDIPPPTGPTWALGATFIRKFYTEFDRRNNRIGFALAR

Renin [2] = target: T1, Renin; test: In vitro inhibition of purified human renin at PH 6.0

SMILES | IC50 (Renin [1]) [nM] | IC50 (Renin [2]) [nM]
CC(C)C[C@H](O)[C@H](O)[C@H](CC1CCCCC1)NC(=O)[C@H](Cc1cscn1)NC(=O)[C@@H]1[C@@H](c2ccccc2)[C@H]1S(C)(=O)=O | 23 | 0.63
C=CS(=O)(=O)[C@H]1[C@H](C(=O)N[C@@H](Cc2cscn2)C(=O)N[C@@H](CC2CCCCC2)[C@@H](O)[C@@H](O)CC(C)C)[C@H]1c1ccccc1 | 17 | 0.63
C=CS(=O)(=O)[C@@H]1[C@@H](C(=O)N[C@@H](Cc2cscn2)C(=O)N[C@@H](CC2CCCCC2)[C@@H](O)[C@@H](O)CC(C)C)[C@@H]1c1ccccc1 | 27 | 7.2
CC(C)C[C@H](O)[C@H](O)[C@H](CC1CCCCC1)NC(=O)[C@H](Cc1cscn1)NC(=O)[C@@H]1[C@@H](C2CCCCC2)[C@H]1S(=O)(=O)C(C)C | 15 | 0.79
COCOCCS(=O)(=O)[C@@H]1[C@@H](C(=O)N[C@@H](Cc2cscn2)C(=O)N[C@@H](CC2CCCCC2)[C@@H](O)[C@@H](O)CC(C)C)[C@@H]1c1ccccc1 | 33 | 1
CC(C)C[C@H](O)[C@H](O)[C@H](CC1CCCCC1)NC(=O)[C@H](Cc1cscn1)NC(=O)[C@H]1[C@H](CC(=O)N2CCOCC2)[C@@H]1c1ccccc1 | 20 | 0.7
COCOCCS(=O)(=O)[C@H]1[C@H](C(=O)N[C@@H](Cc2cscn2)C(=O)N[C@@H](CC2CCCCC2)[C@@H](O)[C@@H](O)CC(C)C)[C@H]1c1ccccc1 | 16 | 0.48
CO[C@@H](CC(C)C)[C@H](O)[C@H](CC1CCCCC1)NC(=O)[C@H](Cc1cscn1)NC(=O)C(Cc1ccccc1)CS(=O)(=O)c1ccccc1 (stereo partly drawn) | 18 | 0.77
CC(C)C[C@H](NC(=O)[C@H]1[C@H](c2ccccc2)[C@@H]1S(=O)(=O)C(C)C)C(=O)N[C@@H](CC1CCCCC1)[C@@H](O)[C@@H](O)CC(C)C | 370 | 4.4
CCCC[C@H](NC(=O)[C@H]1[C@H](c2ccccc2)[C@@H]1S(=O)(=O)C(C)C)C(=O)N[C@@H](CC1CCCCC1)[C@@H](O)[C@@H](O)CC(C)C | 160 | 1.9
CC(C)C[C@H](O)[C@H](O)[C@H](CC1CCCCC1)NC(=O)[C@H](Cc1cscn1)NC(=O)[C@@H]1[C@@H](c2ccccc2)[C@H]1S(=O)(=O)c1ccccc1 | 29 | 1.2
CC(C)C[C@H](O)[C@H](O)[C@H](CC1CCCCC1)NC(=O)[C@H](Cc1cscn1)NC(=O)[C@H]1[C@H](c2ccccc2)[C@@H]1S(C)(=O)=O |  | 23
CC(C)C[C@H](O)[C@H](O)[C@H](CC1CCCCC1)NC(=O)[C@H](Cc1cscn1)NC(=O)[C@H]1[C@H](C2CCCCC2)[C@@H]1S(=O)(=O)C(C)C |  | 14
CC(C)C[C@H](O)[C@H](O)[C@H](CC1CCCCC1)NC(=O)[C@H](Cn1ccnc1)NC(=O)[C@H]1[C@H](c2ccccc2)[C@@H]1S(=O)(=O)C(C)C | 15 | 2.5
CC(C)C[C@H](O)[C@H](O)[C@H](CC1CCCCC1)NC(=O)[C@H](Cc1cscn1)NC(=O)[C@H]1[C@H](c2ccccc2)[C@@H]1S(=O)(=O)C(C)C | 85 | 7

The remaining compounds from weak to strong by IC50 (Renin [1]), led by results:

IC50 (Renin [1]) [nM] | IC50 (Renin [2]) [nM] | SMILES
14 | 0.59 | CC(C)C[C@H](NC(=O)[C@@H]1[C@@H](c2ccccc2)[C@H]1S(=O)(=O)C(C)C)C(=O)N[C@@H](CC1CCCCC1)[C@@H](O)[C@@H](O)CC(C)C
13 | 0.37 | CCCC[C@H](NC(=O)[C@@H]1[C@@H](c2ccccc2)[C@H]1S(=O)(=O)C(C)C)C(=O)N[C@@H](CC1CCCCC1)[C@@H](O)[C@@H](O)CC(C)C
7.9 | 0.38 | CC(C)C[C@H](O)[C@H](O)[C@H](CC1CCCCC1)NC(=O)[C@H](Cc1cscn1)NC(=O)[C@@H]1[C@@H](c2ccccc2)[C@H]1S(=O)(=O)C(C)C
5.8 | 1.4 | CC(C)C[C@H](O)[C@H](O)[C@H](CC1CCCCC1)NC(=O)[C@H](Cn1ccnc1)NC(=O)[C@@H]1[C@@H](c2ccccc2)[C@H]1S(=O)(=O)C(C)C
1.4 |  | CC(C)C[C@H](O)[C@H](O)[C@H](CC1CCCCC1)NC(=O)[C@H](Cc1cscn1)NC(=O)[C@H](Cc1ccccc1)CS(=O)(=O)N1CCOCC1
0.87 |  | CC(C)C[C@H](O)[C@H](O)[C@H](CC1CCCCC1)NC(=O)[C@H](Cc1cscn1)NC(=O)[C@H](Cc1ccccc1)CS(=O)(=O)C(C)(C)C
